Test results published in patent publication US20230095021A1, “MODULATORS OF TDP-43” (Alteron Therapeutics, Inc., priority 2019, published 2023).

How the values were obtained:
[1] = system: Phe508del-CFTR; assay: Phe508del-CFTR localization, immunofluorescence microscopy, primary bronchial epithelial cells of a cystic fibrosis patient; type: cell-based, human; conditions: primary bronchial epithelial cells homozygous for Phe508del-CFTR, 2 μM, 3 days
Description: MDA-MB-231 and U-87 MG cells were cultured on cover slips under the conditions as described above. Cells were treated with DMSO or 4 μM ALT-59 for 3 days. Primary human bronchial epithelial cells isolated from cystic fibrosis patient homozygous for Phe508del-CFTR (Lifeline Cell Technology) were cultured on cover slips in BronchiaLife Cell Culture Medium supplemented with BrochiaLife LifeFactors Kit (Lifeline Cell Technology) and maintained at 37° C. in a CO2 incubator. Cells were treated with DMSO, 4 μM ALT-59, 2 μM ALT-308, or 4 μM ALT-410 for 3 days.
Cells were fixed in 4% paraformaldehyde for 15 minutes and permeabilized in 0.1% Triton X-100 for 2 minutes. After being blocked in 5% BSA (Sigma-Aldrich), cells were incubated with anti-CFTR antibody (Alomone Labs) followed by Alexa Fluor 488 anti-rabbit secondary antibody. Reagents were buffered in GIBCO PBS (Phosphate-Buffered Saline). Images were taken using Carl Zeiss LSM 510 Laser Scanning Microscope. Parameters were set identical for all images.

[2] = system: BACE1; assay: Screening for ALT-59 derivatives with BACE1 protein levels as indicator, U-87 MG cells; type: cell-based; conditions: 2 days, concentrations as indicated in FIGS. 15-17
Description: Additional experiments were performed to screen for compounds with higher potency and the ability to penetrate blood brain barrier using BACE1 protein levels as an indicator. U-87 MG cells were cultured as described previously and treated for 2 days with compounds at concentrations as indicated in FIGS. 15-17. Cells were then subjected to Western blotting analysis using anti-BACE1 and anti-beta-actin antibodies.

For CC1(C)CC(=O)C2=C(C1)c1c(ccc3ccccc13)NC2c1ccc(C(C)(C)C)cc1 (centres unmarked) [ALT-308, 5-(4-(tert-butyl)phenyl)-2,2-dimethyl-2,3,5,6-tetrahydrobenzo[a]phenanthridin-4(1H)-one], which “localization of Phe508del-CFTR on the plasma membrane” value [1] is on record?
Its value is “increased localization of Phe508del-CFTR on the plasma membrane”.

What about the BACE1 protein expression [2] of the same compound?
The BACE1 protein expression was “capable of lowering BACE1 expression”.
